Test results reported in paper PMC3148848 (Journal of medicinal chemistry, 2009).

Molecular target: SARS-CoV PLpro (Severe acute respiratory syndrome coronavirus, UniProt P0C6X7)
Type: biochemical

## Cc1ccccc1C(=O)N[C@H](C)c1ccc2ccccc2c1 [lead]
  mode of inhibition (kinetic studies): reversible inhibitor
